Here are results for 49 molecules from US9012446B2, “Amino-oxazines and amino-dihydrothiazine compounds as beta-secretase modulators and methods of use” (Amgen Inc., priority 2010, dated 2015).

The target of one assay is BACE (Homo sapiens, UniProt P56817). Put plainly: In vitro enzymatic BACE FRET assay. The format is biochemical. Particulars: average IC50, enzyme assay; read-out: BACE 1 FRET assay. The method, boiled down: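 Fluorescence […] after Tris quench reports cleavage of a 50 nM quenched peptide substrate over 1 h. Beforehand, 0.2 nM enzyme sits 1 h with inhibitor dilutions. Buffer: 0.05 M acetate pH 4.2, 100 uM genapol, 10% DMSO final.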
Sequence of BACE (P56817 46-501, species assumed): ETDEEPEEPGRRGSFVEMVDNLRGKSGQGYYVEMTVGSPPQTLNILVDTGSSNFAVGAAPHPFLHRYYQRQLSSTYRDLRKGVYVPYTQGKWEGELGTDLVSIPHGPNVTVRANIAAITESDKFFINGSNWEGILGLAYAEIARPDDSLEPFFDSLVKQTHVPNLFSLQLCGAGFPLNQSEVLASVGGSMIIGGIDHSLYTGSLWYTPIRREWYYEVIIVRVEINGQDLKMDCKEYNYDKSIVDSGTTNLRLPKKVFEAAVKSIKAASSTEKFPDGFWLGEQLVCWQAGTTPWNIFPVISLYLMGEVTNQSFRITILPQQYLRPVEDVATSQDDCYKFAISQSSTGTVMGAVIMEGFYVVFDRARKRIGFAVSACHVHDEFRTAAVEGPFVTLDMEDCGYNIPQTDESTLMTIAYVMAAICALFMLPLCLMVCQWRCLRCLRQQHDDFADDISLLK

The test system of another assay is Aβ40. Put plainly: In vitro BACE cell-based assay (Aβ40 sandwich ELISA, cells stably expressing APP). The method, boiled down: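 Read-out is Aβ40 in cell supernatants, quantified by sandwich ELISA (capture 3 h, detection 2 h, both 4° C) with Delfia time-resolved fluorescence. Cells stably expressing APP were dosed across 10 concentrations from 100 μM or 10 μM top, 0.1% DMSO final; IC50 fitted from percent of control.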

[1] abbreviates: Homo sapiens, HEK293, average IC50, cell assay, HEK cells.
[2] abbreviates: Homo sapiens, HEK293, average IC50, read-out: HEK cell assay.
Where [3] appears, read: average IC50, read-out: HEK cell assay.

Where two headings read alike, the source gives them in different places.

`NC1=N[C@@]2(CCO1)c1cc(-c3cncc(F)c3)ccc1Oc1cnc(-c3cccnc3)cc12` [compound 140]: the values for the IC50 at BACE and in the assay on Aβ40 (setting [1]) were 10.8 nM and 3.4 nM, respectively.

With `NC1=N[C@@]2(CCO1)c1cc(-c3cccnc3F)ccc1Oc1cnc(-c3cncc(Cl)c3)cc12` [compound 141], the values for the IC50 at BACE and with Aβ40 (setting [1]) were 9.5 nM and 22.5 nM, respectively.

For the molecule `NC1=N[C@@]2(CCO1)c1cc(-c3cncc(F)c3)ccc1Oc1cnc(-c3cncc(F)c3)cc12` [compound 142], the IC50 at BACE was 6.2 nM; in the assay with Aβ40 (setting [1]), 4.2 nM.

For the molecule `NC1=N[C@@]2(CCO1)c1cc(-c3cncc(F)c3)ccc1Oc1cnc(C3=CCOCC3)cc12` [compound 143], the IC50 was determined as 5.7 nM at BACE and 3.7 nM in the assay with Aβ40 (setting [1]).

Regarding `NC1=N[C@@]2(CCO1)c1cc(-c3cccnc3F)ccc1Oc1cnc(C3CCOCC3)cc12` [compound 144], the IC50 at BACE was found to be 13.2 nM; in the assay with Aβ40 (setting [1]), 35.4 nM.

`NC1=N[C@]2(CCO1)c1cc(-c3cccnc3F)ccc1Oc1cnc(-c3cccnc3)cc12` [compound 147]: the IC50 at BACE and in the assay with Aβ40 (setting [1]) was 132 nM throughout.

`NC1=N[C@@]2(CCO1)c1cc(-c3cccnc3F)ccc1Oc1cnc(-c3cccnc3)cc12` [compound 148]: the IC50 stood at 4.6 nM on BACE and 4.1 nM in the assay with Aβ40 (setting [1]).

Take `NC1=NC2(CCO1)c1cc(-c3cccnc3)ccc1Oc1cnc(-c3cccnc3)cc12` (centres unmarked) [compound 150, 3,7-di-3-pyridinyl-5′,6′-dihydrospiro[chromeno[2,3-c]pyridine-5,4′-[1,3]oxazin]-2′-amine]: the IC50 was 13 nM at BACE and 10.3 nM in the assay with Aβ40 (setting [1]).

As to `NC1=NC2(CCO1)c1cc(-c3cccnc3)ccc1Oc1cnc(C3=CCOCC3)cc12` (centres unmarked) [compound 151], the values for the IC50 at BACE and in the assay with Aβ40 (setting [1]) were 7.3 nM and 3.4 nM, respectively.

For the molecule `NC1=N[C@]2(CCO1)c1cc(-c3cccnc3F)ccc1Oc1cnc(-c3cncc(F)c3)cc12` [compound 152], the IC50 was determined as 238 nM at BACE and 108 nM with Aβ40 (setting [1]).

Take `NC1=N[C@]2(CCO1)c1cc(-c3cccnc3)ccc1Oc1c(F)cc(C3=CCOCC3)cc12` [compound 157]: the IC50 on BACE turned out to be 784 nM; in the assay with Aβ40 (setting [1]), 78.1 nM.

Consider `CC(C)(F)COc1cc(F)c2c(c1)[C@@]1(CCOC(N)=N1)c1cc(-c3cccnc3)ccc1O2` [compound 158], for which the IC50 was determined as 941 nM on BACE and 393 nM with Aβ40 (setting [1]).

`NC1=N[C@]2(CCO1)c1cc(-c3cccnc3)ccc1Oc1c(F)cc(C3=CCCOC3)cc12` [compound 159]: the IC50 on BACE is 616 nM; in the assay on Aβ40 (setting [1]) it was 71.3 nM.

In the case of `CC1(COc2cc(F)c3c(c2)[C@]2(CCOC(N)=N2)c2cc(-c4cccnc4)ccc2O3)COC1` [compound 160], the figures for the IC50 at BACE and with Aβ40 (setting [1]) were 6.3 nM and 5.9 nM, respectively.

With `CC1(COc2cc(F)c3c(c2)[C@@]2(CCOC(N)=N2)c2cc(-c4cccnc4)ccc2O3)COC1` [compound 161], the IC50 amounted to 2780 nM at BACE and 333 nM in the assay on Aβ40 (setting [1]).

On to `NC1=N[C@]2(CCO1)c1cc(-c3cccnc3F)ccc1Oc1c(F)cc(N3CCC(F)(F)CC3)cc12` [compound 162], for which the IC50 was 958 nM on BACE and 3020 nM in the assay on Aβ40 (setting [2]).

For `NC1=N[C@]2(CCO1)c1cc(-c3cccnc3F)ccc1Oc1c(F)cc(-c3ccncc3)cc12` [compound 165], the IC50 is 553 nM on BACE and 248 nM with Aβ40 (setting [2]).

Consider `NC1=N[C@]2(CCO1)c1cc(-c3cccnc3F)ccc1Oc1c(F)cc(-c3cccnc3)cc12` [compound 167], for which the figures for the IC50 at BACE and with Aβ40 (setting [2]) were 147 nM and 110 nM, respectively.

For the molecule `NC1=N[C@]2(CCO1)c1cc(-c3cccnc3F)ccc1Oc1c(F)cc(C3=CCOCC3)cc12` [compound 169], the IC50 on BACE amounted to 3070 nM; in the assay with Aβ40 (setting [2]) it was 3400 nM.

For the molecule `CC1(COc2cc(F)c3c(c2)[C@@]2(CCOC(N)=N2)c2cc(-c4cccnc4F)ccc2O3)COC1` [compound 171], the IC50 at BACE worked out at 525 nM; in the assay with Aβ40 (setting [2]) it was 245 nM.

With `NC1=N[C@]2(CCO1)c1cc(-c3cccnc3F)ccc1Oc1c(F)cc(C3=CCCOC3)cc12` [compound 172], the IC50 came out at 1190 nM at BACE and 1070 nM in the assay with Aβ40 (setting [2]).

`COc1cc(F)c2c(c1)[C@]1(CCOC(N)=N1)c1cc(-c3cccnc3F)ccc1O2` [compound 175, (4S)-4′-fluoro-7′-(2-fluoro-3-pyridinyl)-2′-methoxy-5,6-dihydrospiro[1,3-oxazine-4,9′-xanthen]-2-amine]: the IC50 at BACE amounted to 38.3 nM; in the assay with Aβ40 (setting [2]), 93 nM.

With `NC1=N[C@]2(CCO1)c1cc(-c3cccnc3F)ccc1Oc1c(F)cc(N3CC[C@@H](F)C3)cc12` [compound 177], the IC50 on BACE came to 892 nM; with Aβ40 (setting [2]) it was 2530 nM.

For the molecule `NC1=N[C@]2(CCO1)c1cc(-c3cccnc3F)ccc1Oc1c(F)cc(N3CCOCC3)cc12` [compound 179], the values for the IC50 at BACE and in the assay with Aβ40 (setting [2]) were 5190 nM and 2820 nM, respectively.

`CC1(COc2cc(F)c3c(c2)[C@]2(CCOC(N)=N2)c2cc(-c4cccnc4F)ccc2O3)COC1` [compound 180]: the values for the IC50 on BACE and in the assay with Aβ40 (setting [2]) were 2.3 nM and 3.2 nM, respectively.

Consider `CC(C)(F)COc1cc(F)c2c(c1)[C@@]1(CCOC(N)=N1)c1cc(-c3cccnc3F)ccc1O2` [compound 181], for which the values for the IC50 on BACE and in the assay on Aβ40 (setting [2]) were 1370 nM and 1160 nM, respectively.

For the molecule `NC1=N[C@]2(CCO1)c1cc(-c3cccnc3F)ccc1Oc1c(F)cc(-c3ccnc(F)c3)cc12` [compound 183], the IC50 on BACE was 7 nM; in the assay with Aβ40 (setting [3]), 15.4 nM.

With `COc1cc(F)c2c(c1)[C@]1(CCSC(N)=N1)c1cc(-c3cccnc3F)ccc1O2` [compound 187], the IC50 on BACE came out at 29.9 nM; in the assay on Aβ40 (setting [2]), 159 nM.

As for `NC1=N[C@@]2(CCS1)c1cc(-c3cccnc3F)ccc1Oc1cnc(-c3ccnc(F)c3)cc12` [compound 188], the IC50 on BACE is 2.6 nM; in the assay with Aβ40 (setting [2]), 11.1 nM.

For `NC1=N[C@]2(CCS1)c1cc(-c3cccnc3F)ccc1Oc1cnc(-c3ccnc(F)c3)cc12` [compound 189], the IC50 at BACE worked out at 2390 nM; in the assay on Aβ40 (setting [2]), 3280 nM.

As to `NC1=N[C@]2(CCS1)c1cc(-c3cccnc3F)ccc1Oc1c(F)cc(C3=CCCOC3)cc12` [compound 190], the IC50 on BACE was 462 nM; in the assay with Aβ40 (setting [2]) it was 434 nM.

Regarding `NC1=N[C@]2(CCS1)c1cc(-c3cccnc3F)ccc1Oc1cnc(Cl)cc12` [compound 192], the IC50 turned out to be 3350 nM at BACE and 5610 nM in the assay on Aβ40 (setting [2]).

Turning to `NC1=N[C@@]2(CCS1)c1cc(-c3cccnc3F)ccc1Oc1cnc(C3=CCOCC3)cc12` [compound 193], the figures for the IC50 on BACE and with Aβ40 (setting [2]) were 3.3 nM and 4.7 nM, respectively.

As to `NC1=N[C@]2(CCS1)c1cc(-c3cccnc3F)ccc1Oc1cnc(C3=CCOCC3)cc12` [compound 194], the IC50 was found to be 473 nM on BACE and 937 nM with Aβ40 (setting [2]).

As to `NC1=N[C@]2(CCS1)c1cc(-c3cccnc3F)ccc1Oc1cnc(C3=CCCOC3)cc12` [compound 195], the IC50 was 922 nM at BACE and 1970 nM in the assay with Aβ40 (setting [2]).

For the molecule `NC1=N[C@]2(CCS1)c1cc(-c3cccnc3F)ccc1Oc1c(F)cc(C3=CCOCC3)cc12` [compound 196], the IC50 at BACE was 2530 nM; with Aβ40 (setting [2]), 83.1 nM.

In the case of `CC1(COc2cc(F)c3c(c2)[C@]2(CCSC(N)=N2)c2cc(-c4cccnc4F)ccc2O3)COC1` [compound 197], the IC50 on BACE amounted to 2.5 nM; with Aβ40 (setting [2]), 4.8 nM.

On to `CC1(COc2cc(F)c3c(c2)[C@@]2(CCSC(N)=N2)c2cc(-c4cccnc4F)ccc2O3)COC1` [compound 198], for which the IC50 on BACE was found to be 563 nM; in the assay on Aβ40 (setting [2]), 634 nM.

`NC1=N[C@@]2(CCS1)c1cc(-c3cccnc3F)ccc1Oc1cnc(Cl)cc12` [compound 199]: the IC50 came out at 90.8 nM on BACE and 392 nM in the assay on Aβ40 (setting [2]).

In the case of `NC1=N[C@@]2(CCS1)c1cc(-c3cccnc3F)ccc1Oc1c(F)cc(C3=CCOCC3)cc12` [compound 200], the IC50 came to 2.7 nM on BACE and 12.3 nM with Aβ40 (setting [2]).

On to `CC(C)(F)COc1cc(F)c2c(c1)[C@@]1(CCSC(N)=N1)c1cc(-c3cccnc3F)ccc1O2` [compound 202], for which the IC50 amounted to 863 nM at BACE and 2430 nM with Aβ40 (setting [2]).

For the molecule `NC1=N[C@@]2(CO[C@@H]1c1ccccc1)c1cc(-c3cccnc3F)ccc1Oc1cnc(Cl)cc12` [compound 208], the IC50 on BACE came to 88.3 nM; in the assay with Aβ40 (setting [3]), 134 nM.

As for `C[C@@H]1OC[C@@]2(N=C1N)c1cc(-c3cccnc3F)ccc1Oc1cnc(Cl)cc12` [compound 210], the figures for the IC50 at BACE and in the assay on Aβ40 (setting [3]) were 90.8 nM and 205 nM, respectively.

For `CC(C)C#Cc1cnc2c(c1)[C@]1(COCC(N)=N1)c1cc(-c3cccnc3F)ccc1O2` [compound 213], the figures for the IC50 at BACE and in the assay with Aβ40 (setting [2]) were 0.6 nM and 1 nM, respectively.

As for `CC(C)(C)C#Cc1ccc2c(c1)[C@@]1(COCC(N)=N1)c1cc(C3=CCOCC3)cnc1O2` [compound 214], the IC50 came out at 3.2 nM on BACE and 6.1 nM in the assay on Aβ40 (setting [2]).

With `NC1=N[C@@]2(COC1)c1cc(-c3cc(F)ccc3F)ccc1Oc1ncc(C3CCOCC3)cc12` [compound 215], the IC50 on BACE amounted to 3.7 nM; in the assay with Aβ40 (setting [2]), 3.2 nM.

As to `NC1=N[C@@]2(COC1)c1cc(-c3cc(F)ccc3F)ccc1Oc1ncc(-c3cccnc3)cc12` [compound 216], the IC50 on BACE is 2.3 nM; in the assay on Aβ40 (setting [2]), 2.8 nM.

As for `NC1=N[C@@]2(COC1)c1cc(-c3cc(F)ccc3F)ccc1Oc1ncc(-c3ccncc3)cc12` [compound 217], the IC50 at BACE was determined as 3.6 nM; in the assay with Aβ40 (setting [2]) it was 4.3 nM.

`NC1=N[C@@]2(COC1)c1cc(-c3cc(F)ccc3F)ccc1Oc1ncc(C3=CCOCC3)cc12` [compound 218]: the IC50 stood at 1.3 nM on BACE and 2.6 nM with Aβ40 (setting [2]).
